Source: patent US9668993B2, “Non-steroidal anti-inflammatory drug dosing regimen” (Johnson & Johnson Consumer Inc., priority 2003, dated 2017)

System: moderate to severe post-operative dental pain
Assay: PK/PD dental pain study, pain relief scores and pain intensity differences over 12 hours
Format: in vivo, human
Details: for pain relief during the first four hours: compared with the other treatments
Experimental: A double-blind, randomized, parallel, placebo-controlled, single center, PK/PD dental pain study was conducted over a 12 hour observation period to evaluate the pharmacokinetic, pharmacodynamic, efficacy and safety profiles of certain ibuprofen dosing regimens. Specifically, a single dose of 600 mg ibuprofen extended release caplets was compared with equivalent total doses of ibuprofen immediate release 200 mg caplets administered in three different dosing regimens as well as placebo in the treatment of moderate to severe post-operative dental pain.
The ibuprofen was administered as ibuprofen extended release 600 mg caplets or one or more ibuprofen immediate release 200 mg caplets.
The patients evaluated in this study consisted of male or non-pregnant and non-lactating female out-patient volunteers, 16 years of age or older, complaining of moderate to severe pain following the surgical extraction of three or four third molars with at least one partial or complete bony impacted third mandibular molar. The term impacted included: partial bony impaction, bony impaction, or complicated bony impaction. A total of 210 patients were entered into the study. 208 patients were eligible for the efficacy analyses.
All patients who met the entrance criteria were enrolled in one of two study sub-groups. One sub-group of patients had both pharmacokinetic and pharmacodynamic evaluation (PK group). The other sub-group of patients had only the analgesic efficacy evaluations (non-PK group). A separate randomization schedule was used for each of the two sub-groups. Patients from both subgroups were assigned at random to one of the five following treatments:
Patients' assessments of pain intensity and pain relief as well as blood samples for plasma ibuprofen analysis were obtained at the study site at hours 0, 0.25, 0.5, 1, 1.5, 2, 2.5, 3, 4, 4.5, 5, 6, 7, 8, 8.5, 9, 10, 11 and 12. A stopwatch technique was used to measure the onset of meaningful pain relief.

SMILES: CC(C)Cc1ccc(C(C)C(=O)O)cc1 (centres unmarked) [ibuprofen, 2-(4-isobutylphenyl)-propionic acid]
- pain relief during the first four hours (400/200/0 regimen: immediate release 400 mg at 0 hour, 200 mg at 4 hours): superior pain relief over the other treatments
- pain relief over the entire 12 hour study period (400/200/0 regimen: immediate release 400 mg at 0 hour, 200 mg at 4 hours, patients after third molar extraction): excellent pain relief
- pain relief scores during the 4 to 12 hour interval (400/200/0 regimen, no further ibuprofen after the first four hours): highest pain relief scores
- pain intensity differences (PID) over the 12 hour study period (400/200/0 regimen, particularly after the four hour mark): best PID
- pain relief during the first four hours (600/0/0 immediate release regimen: 600 mg single dose at 0 hour): superior pain relief over the other treatments
